Measurements from article PMC4917206, “Chemical Modification of Influenza CD8+ T-Cell Epitopes Enhances Their Immunogenicity Regardless of Immunodominance” (PLoS ONE, 2016).
“Also recorded” adds a separate entry of the source.

tested on: splenocytes of WT-vaccinated HLA-A2 tg mice; format: cell-based, mouse; parameters: key to response compared with WT peptide control, mouse splenocytes: *: Lower response than WT peptide; details: not given

Row | Substance | Mouse splenocytes (ex vivo assay), Average | rank by T cell activation, mouse splenocytes | response compared with WT peptide control, mouse splenocytes
1 | FMYSDFHF[2-AOC] [F19] | 62 |  | 
2 | F[2-AOC]YSDFHF[CHA] [F48] | 61 |  | 
3 | NMLSTVLGV [NWT, reference compound] | 436 |  | 
4 | [3-PYRA]MLSTVLG[2-AOC] [N8] | 1 | Lower 3 | 
5 | FMYSDFHF[CHA] [F49] | 60 | Lower 3 | 
6 | [NLE]MLSTVLGV [N52] | 341 |  | 
7 | FMYSDFHF[CpALA] [F52] | 79 |  | 
8 | [3-THI][2-AOC]YSDFHFI [F102] | 96 | Upper 3 | F102 ^*
9 | [4-FPHE][2-AOC]LSTVLGV [N95] | 3 |  | 
10 | [3-THI]MLSTVLG[2-AOC] [N98] | 93 |  | 
11 | [THR-BZL]MLSTVLGV [N176] | 355 |  | 
12 | F[2-AOC]YSDFHF[NLE] [F69] | 63 |  | 
13 | [am-phg]MLSTVLG[2-AOC] [N11] | 3 | Lower 3 | 
14 | [am-phg][CpALA]LGFVFTL [G27] | 35 |  | 
15 | N[2-AOC]LSTVLGV [N40] | 375 | Upper 3 | N40 ^*
16 | [THR-BZL][2-AOC]YSDFHFI [F141] | 67 |  | 
17 | FMYSDFHF[HPG] [F63] | 83 |  | 
18 | [3-PYRA]MYSDFHFI [F100] | 104 | Upper 3 | 

Row | Substance | Mouse splenocytes (ex vivo assay), Average | rank by T cell activation, mouse splenocytes | response compared with WT peptide control, mouse splenocytes
19 | [am-phg]MYSDFHF[2-AOC] [F7] | 54 | Lower 3 | 
20 | [2-AOC]MLSTVLGV [N39] | 334 |  | 
21 | [2-AOC]MYSDFHFI [F95] | 90 |  | 
22 | [4-FPHE]MYSDFHFI [F105] | 62 |  | 
23 | F[2-AOC]LSTVLGV [N177] | 46 |  | 
24 | GILGFV[BUTGLY]TL [G20] | 36 |  | 
25 | [3-PYRA]ILGFVFT[2-AOC] [G29] | 39 |  | 
26 | [CSET][2-AOC]YSDFHFI [F118] | 81 |  | 
27 | NM[2-AOC]STVLGV [N41] | 5 |  | 
28 | F[2-AOC]YSDFHFI [F143] | 92 | Upper 3 | F143 ^*
29 | [3-PYRA]MLSTVLGV [N43] | 108 |  | 
30 | [OM-HS][2-AOC]LSTVLGV [N91] | 344 |  | 
31 | [THR-BZL]MYSDFHFI [F142] | 79 |  | 
32 | FMYSDFHF[CSET] [F54] | 78 |  | 
33 | [CSME][2-AOC]LSTVLGV [N169] | 366 |  | 
34 | [NVA]MLSTVLG[2-AOC] [N15] | 3 | Lower 3 | 
35 | NMLSTVLG[CpALA] [N122] | 128 |  | 

target: T1, HLA-A*0201 (Homo sapiens, UniProt P04439, D140Y/D185E/D98H/E176V/E277Q/G131W/G231S/I119V/I121R/I166T/I218V/L300P/L318F/N151K/N90K/P208A/P217A/Q86G/Q94H/R138H/R169H/T345S); format: binding; details: not given
T1 construct: Soluble MHC was dissolved in PBS containing 0.5 mg/ml bovine γ-globulin; made in house

Row | Substance | FP binding score, percentage inhibition of tracer peptide binding, 4h [%] | FP binding score, percentage inhibition of tracer peptide binding, 24h [%]
36 | FMYSDFHF[2-AOC] [F19] | 87 | 86
37 | F[2-AOC]YSDFHF[CHA] [F48] | 93 | 92
38 | NMLSTVLGV [NWT, reference compound] | 53 | 46
39 | [3-PYRA]MLSTVLG[2-AOC] [N8] | 85 | 82
40 | FMYSDFHF[CHA] [F49] | 88 | 86
41 | [NLE]MLSTVLGV [N52] | 54 | 46
42 | FMYSDFHF[CpALA] [F52] | 81 | 78
43 | [3-THI][2-AOC]YSDFHFI [F102] | 92 | 91
44 | [4-FPHE][2-AOC]LSTVLGV [N95] | 92 | 90
45 | [3-THI]MLSTVLG[2-AOC] [N98] | 83 | 79
46 | [THR-BZL]MLSTVLGV [N176] | 73 | 70
47 | F[2-AOC]YSDFHF[NLE] [F69] | 90 | 89
48 | [am-phg]MLSTVLG[2-AOC] [N11] | 90 | 88
49 | [am-phg][CpALA]LGFVFTL [G27] | 92 | 91
50 | N[2-AOC]LSTVLGV [N40] | 71 | 67
51 | [THR-BZL][2-AOC]YSDFHFI [F141] | 94 | 93
52 | FMYSDFHF[HPG] [F63] | 81 | 78
53 | [3-PYRA]MYSDFHFI [F100] | 79 | 73

Row | Substance | FP binding score, percentage inhibition of tracer peptide binding, 4h [%] | FP binding score, percentage inhibition of tracer peptide binding, 24h [%]
54 | [am-phg]MYSDFHF[2-AOC] [F7] | 91 | 90
55 | [2-AOC]MLSTVLGV [N39] | 68 | 63
56 | [2-AOC]MYSDFHFI [F95] | 82 | 80
57 | [4-FPHE]MYSDFHFI [F105] | 86 | 78
58 | [am-phg][NVA]YSDFHFI [F193] | 85 | 81
59 | F[2-AOC]LSTVLGV [N177] | 90 | 88
60 | GILGFV[BUTGLY]TL [G20] | 82 | 79
61 | [3-PYRA]ILGFVFT[2-AOC] [G29] | 44 | 38
62 | [CSET][2-AOC]YSDFHFI [F118] | 95 | 93
63 | NM[2-AOC]STVLGV [N41] | 78 | 73
64 | F[2-AOC]YSDFHFI [F143] | 93 | 91
65 | [3-PYRA]MLSTVLGV [N43] | 47 | 41
66 | [OM-HS][2-AOC]LSTVLGV [N91] | 91 | 87
67 | [THR-BZL]MYSDFHFI [F142] | 80 | 77
68 | FMYSDFHF[CSET] [F54] | 82 | 80
69 | [CSME][2-AOC]LSTVLGV [N169] | 89 | 87
70 | [NVA]MLSTVLG[2-AOC] [N15] | 71 | 65
71 | NMLSTVLG[CpALA] [N122] | 65 | 60

tested on: HLA-A2 transgenic mice; details: mouse, in vivo

Row | Substance | proportion of vaccinated mice that respond | T cell (IFN-γ) response of vaccinated HLA-A2 tg mice, restimulation not specified or both
72 | NMLSTVLGV [NWT, reference compound] | approximately one out of six | 
73 | [3-PYRA]MYSDFHFI [F100] |  | improved T cell responses; also recorded: higher homologous and heterologous responses
74 | [am-phg][NVA]YSDFHFI [F193] |  | lowest homologous and heterologous responses

same assay, conditions: mouse, in vivo, sc

Row | Substance | IFN-γ ELISpot response after restimulation with WT peptide
75 | [3-PYRA]MYSDFHFI [F100] | higher responses compared to WT-peptide vaccination; also recorded: higher IFN-γ responses than WT peptide-vaccinated mice
76 | [am-phg][NVA]YSDFHFI [F193] | only showed higher responses than WT peptide at a vaccination dose of 25 nmol

tested on: CD8+ T cells of HLA-A2+ human donors; format: cell-based; details: not given

Row | Substance | DC model: IFN-γ-positive CD8+ T cells, Average | rank by T cell activation, DC model
77 | FMYSDFHF[2-AOC] [F19] | 0.07 | Lower 3
78 | F[2-AOC]YSDFHF[CHA] [F48] | 0.11 | 
79 | NMLSTVLGV [NWT, reference compound] | 0.04 | 
80 | [3-PYRA]MLSTVLG[2-AOC] [N8] | 0.01 | Lower 3
81 | FMYSDFHF[CHA] [F49] | 0.18 | Upper 3
82 | [NLE]MLSTVLGV [N52] | 0.03 | 
83 | FMYSDFHF[CpALA] [F52] | 0.13 | 
84 | [3-THI][2-AOC]YSDFHFI [F102] | 0.06 | Lower 3
85 | [4-FPHE][2-AOC]LSTVLGV [N95] | 0.07 | 
86 | [3-THI]MLSTVLG[2-AOC] [N98] | 0.04 | 
87 | [THR-BZL]MLSTVLGV [N176] | 0.03 | 
88 | F[2-AOC]YSDFHF[NLE] [F69] | 0.08 | Lower 3
89 | [am-phg]MLSTVLG[2-AOC] [N11] | 0.03 | Lower 3
90 | [am-phg][CpALA]LGFVFTL [G27] | 0.1 | 
91 | N[2-AOC]LSTVLGV [N40] | 0.06 | 
92 | FMYSDFHF[HPG] [F63] | 0.08 | 
93 | [am-phg]MYSDFHF[2-AOC] [F7] | 0.13 | 
94 | [2-AOC]MLSTVLGV [N39] | 0.05 | 
95 | [2-AOC]MYSDFHFI [F95] | 0.12 | 
96 | [4-FPHE]MYSDFHFI [F105] | 0.08 | 
97 | F[2-AOC]LSTVLGV [N177] | 0.04 | 
98 | GILGFV[BUTGLY]TL [G20] | 0.07 | Lower 3
99 | [3-PYRA]ILGFVFT[2-AOC] [G29] | 0.12 | 
100 | NM[2-AOC]STVLGV [N41] | 0.08 | Upper 3
101 | [3-PYRA]MLSTVLGV [N43] | 0.06 | 
102 | [THR-BZL]MYSDFHFI [F142] | 0.08 | 
103 | FMYSDFHF[CSET] [F54] | 0.14 | Upper 3
104 | [CSME][2-AOC]LSTVLGV [N169] | 0.09 | Upper 3
105 | [NVA]MLSTVLG[2-AOC] [N15] | 0.07 | 
